# Reference: US12077555B2, “STAT degraders and uses thereof” (Kymera Therapeutics, Inc., priority 2019, dated 2024)
# Experiments:
# Assay type in all cases: cell-based
# SUP-M2 cells = assay: CellTiter-Glo cell viability, SUP-M2
# SU-DHL-1 cells [1] = assay: CellTiter-Glo cell viability, SU-DHL-1
# Protocol: Compound-mediated viability effect on MOLM-16 and SU-HDL-1 cells was quantitatively determined using the CellTiter-Glo® Luminescent Cell Viability Assay kit from Promega (Catalog number G7572) following manufacturer's recommended procedures.
# Day 0: 60 nL of compounds/DMSO were stamped to the cell plate as on the recommended platemap. Compound precipitation was observed. Cells were centrifuged at 800 rpm for 5 min, suspended with culture medium, and counted with Countess (Invitrogen). The cell density was adjusted to the recommend concentration. 30 μL of cell solution (2000 cells/well) was added to the assay plate according to the platemap. 30 μL of media was added to column 2 and column 23 as on the platemap. The final concentration of the compounds except for the reference compound Paclitaxel was from 10 μM, 3-fold dilution and 11 dose (Paclitaxel started at 500 nM). The final DMSO concentration was 0.2%. The assay plate was incubated at 37° C., 5% CO2 for 4 days.
# Day 4: The assay plate was equilibrated to RT for ˜10 minutes. Compound precipitation was observed (96h). To determine cell viability, 30 μL of CellTiter Glo reagent was added to each well and the assay plate was centrifuged at 1000 rpm for 30 second, incubated at room temperature for 10 min, and analyzed by detecting the luminescence using a multimode plate reader (EnVision 2105, PerkinElmer). The data was then analyzed by software Prism 7.0 from GraphPad and the dose response curves were fit using a three-parameter logistic equation to calculate EC50.
# DEL cells = assay: CellTiter-Glo cell viability, DEL
# STAT3 = STAT3 (Homo sapiens, UniProt P40763); assay: Deep tandem mass tag proteomics; conditions: Molm-16 and SU-DHL-1 cells, 8 hours, FIGS. 4 and 13
# Protocol: Total protein was isolated from cells (e.g., Molm-16 and SU-DHL-1) and treated with degrader for 8 hours. Vehicle (DMSO)-treated cells were used as controls. Protein lysates, 2 biological replicates per condition, were prepared at 4 C in 8M urea, 75 mM NaCl, 1 mM EDTA in 50 mM Tris HCl (pH 8), 10 mM NaF, phosphatase inhibitor cocktail 2 (1:100; Sigma, P5726) and cocktail 3 (1:100; Sigma, P0044), 2 μg/mL aprotinin (Sigma, A6103), 10 μg/mL Leupeptin (Roche, 11017101001), and 1 mM PMSF (Sigma, 78830). Lysates were spun at 20,000 rcf for 10 min and supernatant (containing extracted proteins) was transferred to a clean microcentrifuge tube. Protein concentrations were determined using the Pierce BCA assay. Protein lysates were reduced with 5 mM dithiothreitol (Thermo Scientific, 20291) for 45 min at room temperature and alkylated with 10 mM iodoacetamide (Sigma, A3221) for an additional 45 min. […] Online fractionation was performed using a nanoflow Proxeon EASY-nLC 1200 UHPLC system (Thermo Fisher Scientific) and separated peptides were analyzed on a benchtop Orbitrap Q Exactive plus mass spectrometer (Thermo Fisher Scientific). All data were analyzed using Spectrum Mill software package (Agilent Technologies). […] In total, 10,992 proteins were quantified. […]
# SU-DHL-1 cells [2] = assay: Caspase 3/7-Glo activity assay; conditions: SU-DHL-1, FIG. 17
# Protocol: Determination of apoptosis was determined using a Caspase 3/7-Glo assay.
# • 1—Prepare the Caspase-Glo® 3/7 Reagent (Promega cat #G8090) • Equilibrate the Caspase-Glo® 3/7 Buffer and lyophilized Caspase-Glo® 3/7 Substrate to room temperature before use. • Transfer the contents of the Caspase-Glo® 3/7 Buffer bottle into the amber bottle containing Caspase-Glo® 3/7 Substrate. • Mix by swirling or inverting the contents until the substrate is thoroughly dissolved to form the Caspase-Glo® 3/7 Reagent • Aliquot and store at −20 • 2—If thawing the reagent, allow it to equilibrate to room temperature. Mix well. • 3—Remove white-walled 384-well plate containing treated cells from the incubator and allow plates to equilibrate to room temperature. • 4—Add Caspase-Glo® 3/7 Reagent to each well of the plate at 1:1 ratio with media. Because of the sensitivity of this assay, be careful not to touch pipet tips to the wells containing samples to avoid cross-contamination. Cover the plate with a plate sealer or lid. • 5—Gently mix contents of wells using a plate shaker at 300-500 rpm for 30 seconds. Incubate at room temperature for 30-60 minutes. Note: Temperature fluctuations will affect the luminescence reading. • 6—Measure the luminescence of each sample in a plate-reading luminometer as directed by the luminometer manufacturer.
# Chain of STAT3 (P40763 whole entry): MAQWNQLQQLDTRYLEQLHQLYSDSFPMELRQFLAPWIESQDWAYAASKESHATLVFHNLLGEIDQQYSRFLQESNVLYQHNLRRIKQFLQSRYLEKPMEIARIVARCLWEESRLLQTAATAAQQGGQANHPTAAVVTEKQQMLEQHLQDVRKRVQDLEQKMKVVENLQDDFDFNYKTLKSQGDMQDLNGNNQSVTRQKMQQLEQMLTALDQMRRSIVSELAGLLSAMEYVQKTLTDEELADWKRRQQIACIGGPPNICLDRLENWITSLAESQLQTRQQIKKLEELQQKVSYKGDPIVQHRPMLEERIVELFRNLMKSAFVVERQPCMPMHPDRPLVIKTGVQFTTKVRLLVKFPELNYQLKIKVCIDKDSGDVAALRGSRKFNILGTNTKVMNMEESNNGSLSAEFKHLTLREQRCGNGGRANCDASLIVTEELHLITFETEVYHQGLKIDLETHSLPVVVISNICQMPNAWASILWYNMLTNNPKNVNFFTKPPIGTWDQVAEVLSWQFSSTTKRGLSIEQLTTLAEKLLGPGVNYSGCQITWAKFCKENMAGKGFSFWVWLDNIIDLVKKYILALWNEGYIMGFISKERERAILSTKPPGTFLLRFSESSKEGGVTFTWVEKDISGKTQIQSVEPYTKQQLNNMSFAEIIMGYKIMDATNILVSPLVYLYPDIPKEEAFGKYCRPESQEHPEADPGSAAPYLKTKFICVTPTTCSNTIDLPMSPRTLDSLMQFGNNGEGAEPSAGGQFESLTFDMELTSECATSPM
compound,measurement,setting,value
"Cn1c(=O)n(C2CCC(=O)NC2=O)c2ccc(C[C@H]3CC[C@@H](CC(=O)N4CC[C@H]5CC[C@@H](C(=O)N[C@@H](CCC(N)=O)C(=O)NC(c6ccccc6)c6ccccc6)N5C(=O)[C@@H](NC(=O)c5cc6cc(C(=O)P(=O)(O)O)ccc6[nH]5)C4)CC3)cc21 (stereo partly drawn) [Compound I-174, 2-[[(5S,8S,10aR)-8-[[(1S)-3-carbamoyl-1-(diphenylmethylcarbamoyl)propyl]carbamoyl]-6-oxo-3-[2-[(1s,4s)-4-[[1-(2,6-dioxopiperidin-3-yl)-3-methyl-2-oxo-1,3-benzodiazol-5-yl]methyl]cyclohexyl]acetyl]-octahydropyrrolo[1,2-a][1,5]diazocin-5-yl]carbamoyl]-1H-indole-5-carbonylphosphonic acid]",IC50,"SUP-M2 cells; 96 h, SUP-M2, ALCL (ALK+), Day 4, read-out: CTG, IC50 μM, Day 4",0.086 µM
same,"CTG (% Max inh), Day 4","SUP-M2 cells; SUP-M2, ALCL (ALK+), Day 4",(95) %
same,cell proliferation,"SUP-M2 cells; SUP-M2, FIG. 16",inhibit
same,IC50,"SU-DHL-1 cells [1]; Homo sapiens, 96 h, SU-DHL-1, ALCL (ALK+), Day 4, read-out: CTG, IC50 μM, Day 4",0.015 µM
same,"CTG (% Max inh), Day 4","SU-DHL-1 cells [1]; SU-DHL-1, ALCL (ALK+), Day 4",(>95) %
same,cell proliferation,"SU-DHL-1 cells [1]; SU-DHL-1, FIG. 5B, FIG. 16",inhibit
same,IC50,"DEL cells; 96 h, ALCL (ALK+), Day 4, read-out: CTG, IC50 μM, Day 4",0.016 µM
same,"CTG (% Max inh), Day 4","DEL cells; ALCL (ALK+), Day 4",(95) %
same,cell proliferation,DEL cells; FIG. 16,inhibit
same,"selectivity of degradation for STAT3 vs >10,000 other detected proteins",STAT3,highly selective for STAT3
same,decrease of STAT3 necessary to induce SU-DHL-1 apoptosis and inhibit cell growth,SU-DHL-1 cells [2],90%
